Results published in US12617744B2, “Production method for reduced coenzyme Q10 form-II type crystal or crystalline solid thereof” (KANEKA CORPORATION, priority 2021, dated 2026).

What was measured:
[1] = Evaluation of slurry filterability by constant pressure filtration (average specific filtration resistance); format: physicochemical; conditions: slurry cooled to 1° C., filtrate volume 200 mL, filtration pressure 0.1 hPa
Experimental: The slurries obtained in Examples and Comparative Example were subjected to constant pressure filtration with a filtrate volume of 200 mL and a filtration pressure of 0.1 hPa and the filtration rate was measured. The average specific filtration resistance (αav) was calculated and used for the evaluation of filterability.

[2] = Median diameter measurement with particle size distribution analyzer; format: physicochemical; conditions: reduced coenzyme Q10 crystal obtained; Partica LA-960
Experimental: The median diameters of reduced coenzyme Q10 crystals obtained in Examples and Comparative Example were measured using the device described below. • Particle size distribution analyzer: Partica LA-960 <Percentage of Form II Crystal in Reduced Coenzyme Q10 Crystal>

[3] = Saturation concentration of crystal forms in alcohol; format: physicochemical; conditions: Form II crystal compared with Form I crystal
Excerpt: The alcohol is preferably a monohydric alcohol having 1 to 5 carbon atoms. Examples of a monohydric alcohol having 1 to 5 carbon atoms include methanol, ethanol, n-propanol, isopropanol, n-butanol, isobutanol, and n-pentanol. As the alcohol, ethanol is particularly preferable because the saturation concentration of Form II crystal is sufficiently lower than the saturation concentration of Form I crystal and is easy to handle. As the alcohol, those exemplified above may be used alone, or two or more thereof may be mixed and used.

[4] = compared with conventional reduced coenzyme Q10 Form I crystal; cited from earlier work
[5] = compared with oxidized coenzyme Q10; cited from earlier work

## COc1c(O)c(C)c(C/C=C(\C)CC/C=C(\C)CC/C=C(\C)CC/C=C(\C)CC/C=C(\C)CC/C=C(\C)CC/C=C(\C)CC/C=C(\C)CC/C=C(\C)CCC=C(C)C)c(O)c1OC [Comparative Example 1, reduced coenzyme Q10]
[1]
  average specific filtration resistance (αav): 3.4×10^10 m/kg
[2]
  Median diameter: 68.2 μm

## COc1c(O)c(C)c(C/C=C(\C)CC/C=C(\C)CC/C=C(\C)CC/C=C(\C)CC/C=C(\C)CC/C=C(\C)CC/C=C(\C)CC/C=C(\C)CC/C=C(\C)CCC=C(C)C)c(O)c1OC [Example 1, reduced coenzyme Q10]
[1]
  average specific filtration resistance (αav): 0.47×10^10 m/kg
[2]
  Median diameter: 115.3 μm

## COc1c(O)c(C)c(C/C=C(\C)CC/C=C(\C)CC/C=C(\C)CC/C=C(\C)CC/C=C(\C)CC/C=C(\C)CC/C=C(\C)CC/C=C(\C)CC/C=C(\C)CCC=C(C)C)c(O)c1OC [Example 2, reduced coenzyme Q10]
[1]
  average specific filtration resistance (αav): 0.98×10^10 m/kg
[2]
  Median diameter: 87.6 μm

## COc1c(O)c(C)c(C/C=C(\C)CC/C=C(\C)CC/C=C(\C)CC/C=C(\C)CC/C=C(\C)CC/C=C(\C)CC/C=C(\C)CC/C=C(\C)CC/C=C(\C)CCC=C(C)C)c(O)c1OC [Example 3, reduced coenzyme Q10]
[1]
  average specific filtration resistance (αav): 0.48×10^10 m/kg
[2]
  Median diameter: 107.3 μm

## COc1c(O)c(C)c(C/C=C(\C)CC/C=C(\C)CC/C=C(\C)CC/C=C(\C)CC/C=C(\C)CC/C=C(\C)CC/C=C(\C)CC/C=C(\C)CC/C=C(\C)CCC=C(C)C)c(O)c1OC [reduced coenzyme Q10 Form II crystal, reduced coenzyme Q10]
[3]
  saturation concentration in an alcohol: lower than the saturation concentration of a Form I crystal
[4]
  stability of crystal form: much more stable than the conventional reduced coenzyme Q10

## COc1c(O)c(C)c(C/C=C(\C)CC/C=C(\C)CC/C=C(\C)CC/C=C(\C)CC/C=C(\C)CC/C=C(\C)CC/C=C(\C)CC/C=C(\C)CC/C=C(\C)CCC=C(C)C)c(O)c1OC [reduced coenzyme Q10]
[5]
  oral absorbability: higher oral absorbability than that of oxidized coenzyme Q10
